Results filed as inconclusive are left out. The source made the active and inactive calls. No rule for the calls is given here.
Biological target: CAAX prenyl protease 2 (Saccharomyces cerevisiae (strain ATCC 204508 / S288c)) (UniProt Q03530)
Experiment: Rce1p protease inhibitors, dose response, biochemical, plate reader, cherry-pick (AID 488788)
Settings: Rce1p enzyme activity, at 10 µM (top of the series)

CAAX prenyl protease 2 (Saccharomyces cerevisiae (strain ATCC 204508 / S288c)), sequence (Q03530 whole entry, looked up): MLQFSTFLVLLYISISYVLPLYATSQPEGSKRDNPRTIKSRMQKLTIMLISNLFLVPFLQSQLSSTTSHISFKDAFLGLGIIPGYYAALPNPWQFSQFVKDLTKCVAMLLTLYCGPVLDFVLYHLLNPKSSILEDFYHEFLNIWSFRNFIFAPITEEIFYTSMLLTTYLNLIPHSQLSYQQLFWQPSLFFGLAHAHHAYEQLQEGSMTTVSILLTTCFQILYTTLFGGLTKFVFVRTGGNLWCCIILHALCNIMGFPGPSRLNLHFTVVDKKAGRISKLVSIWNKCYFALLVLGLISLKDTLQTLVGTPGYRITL

SMILES	activity change, negative = inhibition
O=C(N/N=C/C1CC=CCC1)c1ccc(O)cc1O (configuration not stated)	inactive
Nc1c(C(=O)NCc2ccccc2)sc2nc(N3CCOCC3)c3c(c12)CCCC3	inactive
Cc1nc(SC(C(=O)c2ccccc2)c2ccccc2)nc2ccccc12 (configuration not stated)	inactive
CCCOc1ccccc1C(=O)NCCCC(=O)O	inactive
Cc1cc(Br)ccc1NC(=O)c1cnc(N2CCN(c3ccccn3)CC2)c2ccccc12	inactive
CCN(CC)CCNC(=O)CSc1c2c(nc3cc(Cl)ccc13)CCCC2	inactive
Cc1cc(C)n(CC(=O)NC2CCCCC2C)c(=O)c1C#N (configuration not stated)	inactive
CCCCCCCCNC(C)C(O)c1ccc(SC(C)C)cc1 (configuration not stated)	inactive
O=C(Nc1cc(S(=O)(=O)N2CCOCC2)ccc1N1CCCC1)c1cnccn1	inactive
CCCCNC(=S)NNC(=O)CCn1cc(C)cn1	inactive
C=CC[N+]1(C)CC[C@]23c4c5ccc(O)c4O[C@H]2C(=O)CC[C@@]3(O)[C@H]1C5 (some centres not stated)	inactive
CN(C)CC(C)(C)CNC(=S)NCc1ccc2c(c1)OCO2	inactive
CCCCNC(=O)c1cc2c(=O)n3cccc(C)c3nc2n(Cc2ccccc2)c1=N	inactive
CC1CCC/C(=C\Nc2ccccc2C(=O)O)C1=O (configuration not stated)	inactive
CCn1c(COc2cccc(C)c2)nnc1SCC(=O)NC1CCCC1	inactive
COc1ccc(OC)c(NC(=O)c2cc3oc4ccccc4c3cc2O)c1	inactive
Cc1ccc(NS(=O)(=O)c2ccc(NC(=O)N3CCCCC3)cc2)cc1	inactive
Cc1nc(N2CCOCC2)c2c(C)c(C(=O)Nc3ccccc3C(F)(F)F)sc2n1	inactive
COc1cccc(-c2csc(N3CCN(C(=O)NC45CC6CC(CC(C6)C4)C5)CC3)n2)c1	inactive
CCCCOc1ccc(C(=O)Nn2c(-c3cccs3)nc3ccccc3c2=O)cc1	inactive
Cc1ccc(C(=O)c2c3ccccc3[n+]([O-])n2CCO)cc1	inactive
Cc1nn(-c2ccccc2)c2nc(N)c(C(N)=O)cc12	inactive

— PubChem BioAssay AID488788 (Broad Institute, 2010)
